What was measured:
Assay type in all cases: physicochemical
[1] = Test Example 2: solid stability, 40° C. 89% RH 3 months, amount of analogous substance
Experimental: The crystal and amorphous substance of the compound represented by Formula (I) obtained in Example 1 were stored (40° C., 89% RH 3M) in a hermetically sealed container at 40° C. and a relative humidity of 89% for 3 months, and subjected to a solid stability test to evaluate the amount of an analogous substance.
The crystal or amorphous substance of the compound represented by Formula (I) obtained in Example 1 was dissolved in an acetonitrile aqueous solution (acetonitrile:water=1:1) to prepare a sample solution to be exactly 500 μg/mL.
The purity and the amount of the analogous substance were measured by an area percentage method under the HPLC conditions 1 described in Test Example 1.
The results of the crystal and amorphous substance of the compound represented by Formula (I) obtained in Example 1 are described in the following table. Impurities detected at a retention time (RT, retention time) of 17.527 minutes indicate an increase amount with respect to a standard product.

[2] = Solid stability test: storage stability (amount of analogous substance by HPLC, appearance); conditions: temperature, temperature and humidity conditions, light irradiation; analogous substance by HPLC and appearance
Experimental: For the solid stability of the crystal of the compound represented by Formula (I) obtained in Example 1 and the crystal of the compound represented by Formula (II) obtained in Example 16, the chemical stability under temperature, temperature and humidity conditions, and light irradiation was evaluated. The proportion (%) of the analogous substance produced by an HPLC method and the change in appearance were evaluated.
About 10 mg of the crystal was accurately weighed in a 2 mL glass container with a polyethylene stopper. After the glass container was closed, the glass container was stored at 40° C. or 60° C. for 2 weeks, 1 month, 2 months, 3 months, or 6 months. A sample stored at 40° C. is referred to as a 40° C. hermetically sealed product, and a sample stored at 60° C. is referred to as a 60° C. hermetically sealed product. In a state where the glass container was opened, the glass container was stored at a relative humidity of 75±5% at 40° C. or a relative humidity of 89±5% for 2 weeks, 1 month, 2 months, 3 months or 6 months, or in the presence of silica gel at 40° C. for 1 month, 2 months, 3 months or 6 months. A sample stored at 40° C. and a relative humidity of 75±5% or 89±5% is referred to as a 40° C. and 75% relative humidity (also referred to as 40±2° C./75±5% RH) or 40° C. and 89% relative humidity (also referred to as 40±2° C./89% RH) stored product, and a sample stored in the presence of silica gel at 40° C. is referred to as a 40° C. stored product. The −40° C. hermetically sealed product was used as a standard product.
The amount of the analogous substance was measured by an area percentage method by the HPLC method under the following conditions.
HPLC Conditions 1 were used for the crystal and amorphous substance of the compound represented by Formula (I) obtained in Example 1, and HPLC conditions 2 were used for the crystal of the compound represented by Formula (II) obtained in Example 16.
• Detector: ultraviolet absorptiometer (measurement wavelength: 260 nm) • Column: YMC-Triart C18 ExRS, S-1.9 μm, 3.0×100 mm • Column temperature: constant temperature at near 40° C. • Mobile phase A: 0.1% formic acid aqueous solution • Mobile phase B: acetonitrile • Flow rate: about 0.6 mL/min • Injection amount: 3 μL • Sample cooler temperature: about 6° C. • Feed of mobile phase: The mixing ratio of mobile phase A and mobile phase B was changed as shown in Table 18 to control concentration gradient.
Column: Cortecs (2.7 μm 3.0×100 mm)
Column temperature: 40° C.
UV detection wavelength: 254 nm

[3] = Moisture adsorption/desorption isotherm measurement (DVS); conditions: 25° C.
Text: The moisture adsorption/desorption isotherm measurement is a measurement method for measuring the adsorption and desorption behavior of moisture by measuring a weight change in a solid as a measurement target under each relative humidity condition.
As a basic measurement method, based on the dry weight at 0% RH (relative humidity 0%), the relative humidity is increased every 5% or 10%, and after the weight is stabilized at each relative humidity, the amount of adsorbed water can be determined from the weight increase from the reference value. Similarly, the desorption amount of water can be measured by decreasing the relative humidity every 5% or 10% from 100% RH or 95% RH.
By plotting the value of the weight change at each relative humidity, an adsorption/desorption isotherm can be obtained.
Sorption and desorption of adhesion water and crystal water are affected by particle size, crystallinity, crystal habit, and the like, so that the measurement results may slightly change.
The crystals and amorphous substances obtained in each Example were weighed in an aluminum pan, and allowed to stand at 25° C. and a relative humidity of 0%. The measurement was started after the compound was sufficiently dried and the weight was stabilized, and the weight when the relative humidity changed from 0% to 95% by 5% was recorded. Next, the weight when the relative humidity changed from 95% to 0% by 5% was recorded.
Device: DVS Advantage manufactured by Surface Measurement Systems

Q: For `Cc1ccc(-n2nc3c(c2NC(=O)CS(C)(=O)=O)C(=O)N[C@@]2(CCOc4cc(F)cc(F)c42)C3)nc1` [crystal of the compound represented by Formula (I) obtained ], which “impurities detected at a retention time of 17.527 minutes, increase with respect to standard product (in words)” value [1] is on record?
A: increase in impurities could be greatly suppressed

Q: And the “solid stability (in words)” value [2]?
A: excellent in solid stability under any conditions

Q: And the “difference in water content between 0% RH and 95% RH” value ([3]; DVS)?
A: about 1.4%

Q: What about the Moisture adsorption amount ([3]; relative humidity 0.0%) of the same molecule?
A: 0.000%

Q: And the Moisture desorption amount ([3]; relative humidity 0.0%)?
A: 0.063%

Q: What about the Moisture adsorption amount ([3]; relative humidity 5.0%) of the same molecule?
A: 0.064%

Q: And the Moisture desorption amount ([3]; relative humidity 5.0%)?
A: 0.153%

Q: And the Moisture adsorption amount ([3]; relative humidity 10.0%)?
A: 0.115%

Q: What about the Moisture desorption amount ([3]; relative humidity 10.0%) of the same molecule?
A: 0.230%

Q: What about the Moisture adsorption amount ([3]; relative humidity 15.0%) of the same molecule?
A: 0.174%

Q: And the Moisture desorption amount ([3]; relative humidity 15.0%)?
A: 0.316%

Q: What about the Moisture adsorption amount ([3]; relative humidity 20.0%) of the same molecule?
A: 0.234%

Q: What about the Moisture desorption amount ([3]; relative humidity 20.0%) of the same molecule?
A: 0.395%

Q: And the Moisture adsorption amount ([3]; relative humidity 25.0%)?
A: 0.321%

Q: And the Moisture desorption amount ([3]; relative humidity 25.0%)?
A: 0.509%

Q: What about the Moisture adsorption amount ([3]; relative humidity 30.0%) of the same molecule?
A: 0.449%

Q: And the Moisture desorption amount ([3]; relative humidity 30.0%)?
A: 0.638%

Q: And the Moisture adsorption amount ([3]; relative humidity 35.0%)?
A: 0.549%

Q: What about the Moisture desorption amount ([3]; relative humidity 35.0%) of the same molecule?
A: 0.740%

Q: What about the Moisture adsorption amount ([3]; relative humidity 40.0%) of the same molecule?
A: 0.639%

Q: What about the Moisture desorption amount ([3]; relative humidity 40.0%) of the same molecule?
A: 0.830%

Q: What about the Moisture adsorption amount ([3]; relative humidity 45.0%) of the same molecule?
A: 0.719%

Q: What about the Moisture desorption amount ([3]; relative humidity 45.0%) of the same molecule?
A: 0.917%

Q: And the Moisture adsorption amount ([3]; relative humidity 50.0%)?
A: 0.798%

Q: And the Moisture desorption amount ([3]; relative humidity 50.0%)?
A: 0.989%

Q: What about the Moisture adsorption amount ([3]; relative humidity 55.0%) of the same molecule?
A: 0.867%

Q: What about the Moisture desorption amount ([3]; relative humidity 55.0%) of the same molecule?
A: 1.052%

Q: And the Moisture adsorption amount ([3]; relative humidity 60.0%)?
A: 0.925%

Q: And the Moisture desorption amount ([3]; relative humidity 60.0%)?
A: 1.113%

Q: And the Moisture adsorption amount ([3]; relative humidity 65.0%)?
A: 1.003%

Q: And the Moisture desorption amount ([3]; relative humidity 65.0%)?
A: 1.179%

Q: What about the Moisture adsorption amount ([3]; relative humidity 70.0%) of the same molecule?
A: 1.070%

Q: What about the Moisture desorption amount ([3]; relative humidity 70.0%) of the same molecule?
A: 1.237%

Q: And the Moisture adsorption amount ([3]; relative humidity 75.0%)?
A: 1.150%

Q: And the Moisture desorption amount ([3]; relative humidity 75.0%)?
A: 1.288%

Q: What about the Moisture adsorption amount ([3]; relative humidity 80.0%) of the same molecule?
A: 1.196%

Q: And the Moisture desorption amount ([3]; relative humidity 80.0%)?
A: 1.314%

Q: And the Moisture adsorption amount ([3]; relative humidity 85.0%)?
A: 1.266%

Q: What about the Moisture desorption amount ([3]; relative humidity 85.0%) of the same molecule?
A: 1.369%

Q: What about the Moisture adsorption amount ([3]; relative humidity 90.0%) of the same molecule?
A: 1.350%

Q: And the Moisture desorption amount ([3]; relative humidity 90.0%)?
A: 1.407%

Q: What about the Moisture adsorption amount ([3]; relative humidity 95.0%) of the same molecule?
A: 1.426%

Q: And the Moisture desorption amount ([3]; relative humidity 95.0%)?
A: 1.426%
